This note sets out measurements from ChEMBL document CHEMBL5154646, “Structure-guided optimization of 1H-imidazole-2-carboxylic acid derivatives affording potent VIM-Type metallo-β-lactamase inhibitors” (Eur J Med Chem, 2022).

Data set [1] relates to Escherichia coli. Kind of data set: Potentiation of meropenem-induced antibacterial activity against Escherichia coli C1580 expressing VIM-2 assessed as fold reduction in meropenem MIC at 10 ug/ml incubated for 18 to 20 hrs by CLSI based broth microtiter dilution method. The class given is functional. The settings on record: dose 10 µg/ml; time 18-20 hrs.
In data set [2] the test system is Escherichia coli. Kind of data set: Potentiation of meropenem-induced antibacterial activity against Escherichia coli C1541 expressing IMP-1 assessed as fold reduction in meropenem MIC at 10 ug/ml incubated for 18 to 20 hrs by CLSI based broth microtiter dilution method. The class given is functional. The conditions noted are these: dose 10 µg/ml; time 18-20 hrs.

Data set [3] in a line: Inhibition of bacterial VIM-2 (27 to 266 residues) expressed in Escherichia coli Transetta (DE3) using FC-5 as substrate preincubated with enzyme for 10 mins followed by substrate addition by fluorescence based analysis. More on the design: species or system Bacteria.
The test system of data set [4] is Escherichia coli. Kind of data set: Potentiation of meropenem-induced antibacterial activity against Escherichia coli C1580 expressing VIM-2 assessed as meropenem MIC at 10 ug/ml incubated for 18 to 20 hrs by CLSI based broth microtiter dilution method (reference value: 32 ug/ml). The settings on record: dose 10 µg/ml, time 18-20 hrs. The class given is functional.

Data set [5] is described as follows: Inhibition of bacterial recombinant full length C-terminal-TEV-His6-tagged VIM-1 expressed in Escherichia coli Transetta using FC-5 as substrate preincubated with enzyme for 10 mins followed by substrate addition by fluorescence based analysis. More on the design: species or system Bacteria.
The nature of data set [6]: Inhibition of bacterial recombinant full length N-terminal-TEV-His6-tagged VIM-5 expressed in Escherichia coli Transetta using FC-5 as substrate preincubated with enzyme for 10 mins followed by substrate addition by fluorescence based analysis. More on the design: species or system Bacteria.
Data set [7] is described as follows: Inhibition of bacterial NDM-1 (1 to 270 residues) expressed in Escherichia coli Transetta (DE3) using FC-5 as substrate preincubated with enzyme for 10 mins followed by substrate addition by fluorescence based analysis. Also on record: species or system Bacteria.
The nature of data set [8]: Inhibition of bacterial IMP-1 (1 to 246 residues) expressed in Escherichia coli Transetta (DE3) using FC-5 as substrate preincubated with enzyme for 10 mins followed by substrate addition by fluorescence based analysis. Also on record: species or system Bacteria.
Data set [9] relates to Escherichia coli. The experiment in a line: Potentiation of meropenem-induced antibacterial activity against Escherichia coli C1541 expressing VIM-2 assessed as meropenem MIC at 10 ug/ml incubated for 18 to 20 hrs by CLSI based broth microtiter dilution method (reference value: 16 ug/ml). The settings on record: dose 10 µg/ml, time 18-20 hrs. The class given is functional.

The test system of data set [10] is Escherichia coli. Kind of data set: Potentiation of meropenem-induced antibacterial activity against Escherichia coli C1542 expressing VIM-2 assessed as meropenem MIC at 10 ug/ml incubated for 18 to 20 hrs by CLSI based broth microtiter dilution method (reference value: 16 ug/ml). The class given is functional. The conditions noted are these: dose 10 µg/ml, time 18-20 hrs.

For data set [11], the system named is Escherichia coli. Kind of data set: Potentiation of meropenem-induced antibacterial activity against Escherichia coli C1541 expressing IMP-1 assessed as meropenem MIC at 10 ug/ml incubated for 18 to 20 hrs by broth microtiter dilution method (reference value: 32 ug/ml). The class given is functional. The conditions noted are these: dose 10 µg/ml, time 18-20 hrs.

Data set [12] concerns Escherichia coli. The experiment in a line: Synergistic antibacterial activity against Escherichia coli C1541 expressing VIM-2 assessed as fractional inhibitory concentration index incubated for 18 to 20 hrs in presence of meropenem by checkerboard microdilution assay. The class given is functional. The conditions noted are these: time 18-20 hrs.
Data set [13] is described as follows: Inhibition of bacterial VIM-2 (27 to 266 residues) expressed in Escherichia coli Transetta (DE3) using FC-5 as substrate preincubated with enzyme for 10 mins followed by substrate addition in presence of 1 uM Zn2+ by fluorescence based analysis. Also on record: species or system Bacteria.
Data set [14] is described as follows: Inhibition of bacterial VIM-2 (27 to 266 residues) expressed in Escherichia coli Transetta (DE3) using FC-5 as substrate preincubated with enzyme for 10 mins followed by substrate addition in presence of 100 uM Zn2+ by fluorescence based analysis. Also on record: species or system Bacteria.
Data set [15] has as its system Escherichia coli. Kind of data set: Synergistic antibacterial activity against Escherichia coli C1541 expressing VIM-2 assessed as fractional inhibitory concentration index incubated for 18 to 20 hrs in presence of meropenem and 1 uM of zinc sulfate by checkerboard microdilution assay. The class given is functional. The settings on record: time 18-20 hrs. (Broth dilution looks for growth in wells or tubes with falling amounts of substance.)

Data set [16] relates to Escherichia coli. Kind of data set: Synergistic antibacterial activity against Escherichia coli C1541 expressing VIM-2 assessed as fractional inhibitory concentration index incubated for 18 to 20 hrs in presence of meropenem and 100 uM of zinc sulfate by checkerboard microdilution assay. The settings on record: time 18-20 hrs. The class given is functional.
For data set [17], the system named is Pseudomonas aeruginosa. The experiment in a line: Potentiation of meropenem-induced antibacterial activity against Pseudomonas aeruginosa W35 expressing VIM-2 assessed as meropenem MIC at 100 ug/ml incubated for 18 to 20 hrs in presence of meropenem by CLSI based broth microtiter dilution method (reference value: 64 ug/ml). The class given is functional. The conditions noted are these: dose 100 µg/ml, time 18-20 hrs.

The subject of data set [18] is Pseudomonas aeruginosa. The experiment in a line: Potentiation of meropenem-induced antibacterial activity against Pseudomonas aeruginosa 5621 expressing VIM-2 assessed as meropenem MIC at 100 ug/ml incubated for 18 to 20 hrs in presence of meropenem by CLSI based broth microtiter dilution method (reference value: 64 ug/ml). The class given is functional. The settings on record: dose 100 µg/ml, time 18-20 hrs.

Data set [19] has as its system Escherichia coli. The experiment in a line: Potentiation of meropenem-induced antibacterial activity against Escherichia coli C1541 expressing VIM-2 assessed as fold reduction in meropenem MIC at 10 ug/ml incubated for 18 to 20 hrs by CLSI based broth microtiter dilution method. The class given is functional. The conditions noted are these: dose 10 µg/ml; time 18-20 hrs.

The test system of data set [20] is Pseudomonas aeruginosa. Kind of data set: Potentiation of meropenem-induced antibacterial activity against Pseudomonas aeruginosa 5621 expressing VIM-2 assessed as fold reduction in meropenem MIC at 100 ug/ml incubated for 18 to 20 hrs by CLSI based broth microtiter dilution method. The settings on record: dose 100 µg/ml; time 18-20 hrs. The class given is functional.

In data set [21] the test system is Escherichia coli. Kind of data set: Potentiation of meropenem-induced antibacterial activity against Escherichia coli C1542 expressing VIM-2 assessed as fold reduction in meropenem MIC at 10 ug/ml incubated for 18 to 20 hrs by CLSI based broth microtiter dilution method. The class given is functional. The settings on record: dose 10 µg/ml; time 18-20 hrs.
For data set [22], the system named is Pseudomonas aeruginosa. The experiment in a line: Potentiation of meropenem-induced antibacterial activity against Pseudomonas aeruginosa W35 expressing VIM-2 assessed as fold reduction in meropenem MIC at 100 ug/ml incubated for 18 to 20 hrs by CLSI based broth microtiter dilution method. The settings on record: dose 100 µg/ml; time 18-20 hrs. The class given is functional.

Data set [23] concerns Escherichia coli. Kind of data set: Potentiation of meropenem-induced antibacterial activity against Escherichia coli C1541 expressing IMP-1 assessed as fold reduction in meropenem MIC at 100 ug/ml incubated for 18 to 20 hrs by CLSI based broth microtiter dilution method. The class given is functional. The conditions noted are these: dose 100 µg/ml; time 18-20 hrs.
Data set [24] has as its system Pseudomonas aeruginosa. Kind of data set: Synergistic antibacterial activity against Pseudomonas aeruginosa W35 expressing VIM-2 assessed as fractional inhibitory concentration index incubated for 18 to 20 hrs in presence of meropenem by checkerboard microdilution assay. The class given is functional. The conditions noted are these: time 18-20 hrs.
Data set [25] can be described thus: Solubility of the compound in water. The class given is physicochemical.

Each structure is given as a SMILES string.

For the compound `O=C(O)c1nccn1Cc1cc(Br)cc(Br)c1`, the “fold change (FC)” value in the data set with Escherichia coli [1] is on record as 8; in the data set with Escherichia coli [2] it was 2; in the data set on Escherichia coli [19], 32; in the data set with Pseudomonas aeruginosa [20], 2; with Escherichia coli [21] it was 16; with Pseudomonas aeruginosa [22], 4. The “fold change (FC)” value in the data set with Escherichia coli [23] is on record as 8. Besides, the IC50 in [3] is 14 nM; in [5], 1370 nM; in data set [6], 53 nM; in [7], 98900 nM; in [8], 85 nM; in data set [13] it was 48 nM. For the same compound, the half-inhibitory concentration (IC50) in data set [14] turned out to be 110 nM. For the same compound, the MIC with Escherichia coli [4] was determined as 4 µg/mL; in the data set with Escherichia coli [9] it was 0.5 µg/mL; with Escherichia coli [10], 1 µg/mL; with Escherichia coli [11] it was 16 µg/mL; in the data set with Pseudomonas aeruginosa [17], 16 µg/mL; with Pseudomonas aeruginosa [18] it was 32 µg/mL. The entries for the “fractional inhibitory concentration index (FICI)” value in the data set on Escherichia coli [12], in the data set with Escherichia coli [15] and in the data set with Escherichia coli [16] were 0.05, 0.06 and 0.06, respectively.
In the case of `Nc1nc2ccc(Cn3ccnc3C(=O)O)cc2s1`, the “fold change (FC)” value is over 128 with Escherichia coli [1]; 1 with Escherichia coli [2]; over 64 in the data set on Escherichia coli [19]; 1 in the data set with Pseudomonas aeruginosa [20]; over 64 in the data set with Escherichia coli [21]; 4 in the data set with Pseudomonas aeruginosa [22]. In addition, the IC50 is 19 nM in [3]; 13600 nM in data set [5]; 380 nM in [6]; 178000 nM in data set [7]; 14400 nM in data set [8]; 14 nM in [13]. Moreover, in data set [14], the IC50 amounted to 76 nM. For the same compound, the MIC in the data set with Escherichia coli [4] was under 0.25 µg/mL; in the data set on Escherichia coli [9] it was under 0.25 µg/mL; in the data set on Escherichia coli [10], under 0.25 µg/mL; in the data set with Escherichia coli [11], 32 µg/mL; with Pseudomonas aeruginosa [17], 16 µg/mL; with Pseudomonas aeruginosa [18] it was 64 µg/mL. Moreover, the “fractional inhibitory concentration index (FICI)” value is given as 0.02 with Escherichia coli [12], 0.02 with Escherichia coli [15], 0.03 with Escherichia coli [16] and 0.125 in the data set on Pseudomonas aeruginosa [24]. In [25], the solubility was under 2500 µg/mL.

In general, IC50 refers to the point on the concentration scale where inhibition reaches its midpoint. Usually MIC stands for the lowest concentration found to suppress growth. Broadly, the solubility is the dissolved amount per volume that the medium holds. A high value points to a readily soluble substance.
